Data: US11008572B2, “Methods and compositions for modulating splicing” (SKYHAWK THERAPEUTICS, INC., priority 2017, dated 2021)
pEC50, pIC50: −log10 of the molar value.

Key:
Type in all cases: cell-based
SMN2^FL mRNA = experiment: SMN2 splicing assay, real-time quantitative PCR, SMA type I patient cells (GM03813); conditions: Homo sapiens, 24 hours
Procedure: (§1) Various cells lines were treated with the SMSMs described herein. RNA was then isolated, cDNA synthesized, qPCR performed and the levels of various mRNA targets of the SMSMs were determined. In some instances, RNA was isolated, cDNA synthesized, qPCR performed and the levels of mRNA isoforms in the various cell samples were determined.
(§2) SMA type I patient cells (GM03813 (Coriell))
(§3) On the day of the experiment, a 96-well plate was seeded with the cell lines of interest. The cells were diluted with full growth media to a concentration of 2.0×10^5 cells/mL and 100 μL of cells were added to each well (20,000 cells per well). The cells were treated with a compound immediately after plating.
(§4) The compounds were then added to the cell plate using the HP compound dispenser. In the initial experiment, a top concentration of 10 μM and an 8 point 4-fold dilution scheme was used. The stock compounds were made at a concentration of 5 mM, and the DMSO concentration was set to 0.2%. DMSO was used to normalize all the compound-containing wells and the untreated cells.
(§5) The treated cells were incubated at 37° C. in a 5% CO2 incubator for the desired amount of time. Plates were placed in a plastic bag with a wet paper towel to prevent evaporation.
(§6) RNA was isolated using the Cells to CT kit (ThermoFisher, AM1728). The cells were washed once with 100 μL cold PBS. 50 μL of lysis buffer was added to each well/tube (49.5 μL lysis buffer+0.5 μL DNase I per well/tube). The lysis reaction was mixed and incubated at room temperature for 5 minutes. 5 μL of stop solution was added directly into each cell lysis reaction and mixed by pipetting up and down 5 times. The plates/tubes were incubated at room temperature for 2 minutes then placed on ice if the cDNA synthesis was to be performed immediately. Otherwise, the plates/tubes were stored at −80° C.
(§7) cDNA synthesis reactions were then performed. 40 μL RT master mix was added to PCR tubes or plate wells. 10 μL of RNA was added to each tube/well. The RT thermal cycler program was then run and tubes or plate wells were incubated at 37° C. for 1 hour, then at 95° C. for 5 minutes to deactivate the enzyme.
(§8) The qPCR was performed using a QuantStudio 6instrument (ThermoFisher) and the following cycling conditions and according to the tables below. All samples and standards were analyzed in triplicate. Cycle 1: 2 minutes at 50° C. Cycle 2: 10 minutes at 95′C. Cycle 3 (repeat 40 times): 15 seconds at 95° C., 1 minute at 60° C.
(§9) The determined SMN2^Δ7 and SMN2^FL quantities were then be used to determine the SMN2^Δ7:SMN2^FL ratio at the various compound concentrations. The PPIA quantities were used in the normalization to account of cell proliferation effects of the compounds.
(§10) An assay to measure the SMN2^FL mRNA and SMN2^Δ7 mRNA simultaneously in cell wells was performed. The RNA values were measured relative to DMSO control and also included a housekeeping gene, PPIA to ensure data was consistent. The mRNA values were measured after 24 hours of incubation with the SMSM compounds.
(§11) Additionally, to monitor expression levels of SMN2 splice variant using real-time quantitative PCR, SMA type I patient cells (GM03813 (Coriell)) were plated at 5,000 cells/well in 200 μl Dulbecco's modified Eagle's medium (DMEM) with GlutaMAX and 10% fetal bovine serum (FBS) (Life Technologies, Inc.) in 96-well plates, and incubated for 6 hours in a cell culture incubator. Cells were then treated with SMSMs at different concentrations (0.5% DMSO) in duplicate for 24 hours. After removal of the supernatant, cells were lysed in Cells-To-Ct lysis buffer (Life Technologies, Inc.) according to the manufacturer's recommendations. The mRNA levels of SMN2 FL, SMN2 A7 were quantified using Taqman-based RT-qPCR and SMN2-specific primers and probes. The SMN2 forward and reverse primers were each used at a final concentration of 0.4 μM. The SMN2 probe was used at a final concentration of 0.1 μM. […]

SMN2^Δ7 mRNA = experiment: as above; conditions: Homo sapiens, 24 hours
Procedure: as §1, §2, §3, §4, §5, §6, §7, §8, §9, §10, §11

[1] = Splicing (IC50), Example 22; conditions: spliced gene and cells not stated
Procedure: A-673 cell viability […], splicing (IC50) and brain AUC/Plasma AUC of SMSMs were determined. As shown in the tables below SMSMs had high CNS exposure.

Row | Structure (SMILES) | pEC50 (SMN2^FL mRNA) | pIC50 (SMN2^Δ7 mRNA) | pIC50 [1]
1 | CN(c1ccc(-c2ccc(-c3cn[nH]c3)cc2O)nn1)[C@@H]1C[C@H]2CCC[C@@H](C1)N2 [compound 160, 2-(6-(((1R,3s,5S)-9-azabicyclo[3.3.1]nonan-3-yl)(methyl)amino)pyridazin-3-yl)-5-(1H-pyrazol-4-yl)phenol] | 9.22 | 9.15 | > 9.00
2 | CN(c1ccc(-c2ccc(-c3cn[nH]c3)cc2O)nn1)[C@H]1C[C@]2(C)CC[C@](C)(C1)N2 [compound 151, 2-(6-(((1R,3s,5S)-1,5-dimethyl-8-azabicyclo[3.2.1]octan-3-yl)(methyl)amino)pyridazin-3-yl)-5-(1H-pyrazol-4-yl)phenol] | 9.15 | 9.05 | > 9.00
3 | CN(c1ccc(-c2ccc(-c3cn[nH]c3)cc2O)nn1)[C@@H]1C[C@H]2CC[C@@H](C1)N2 [compound 138, 2-(6-(((1R,3s,5S)-8-azabicyclo[3.2.1]octan-3-yl)(methyl)amino)pyridazin-3-yl)-5-(1H-pyrazol-4-yl)phenol] | 9.00 | 9.00 | –
